Experiment: Pharmacokinetics after oral capsules (sCT plus Dmt-DALDA with citric acid and lauroyl carnitine), non-enteric coated or enteric coated, in fasted beagle dogs (plasma; ELISA for sCT, HPLC-MS for Dmt-DALDA)
Format: in vivo
Method: A second series of tests was carried out, as noted above, using beagle dogs. […] In the experiments represented in FIGS. 2A and 2B, size 00 […] capsules were each filled with 758 mg of a powdered blend consisting of citric acid (643 mg), lauroyl carnitine (66 mg), talc (33 mg), salmon calcitonin (sCT) (13 mg) and Dmt-DALDA (2.4 mg). Half of the capsules were coated with an enteric coating solution of L30D-55, while the remaining 50% of the capsules were not coated. Four fasted dogs were each given 1 uncoated capsule, and 2 weeks later they were each given an enteric coated capsule. After administration of each capsule, samples of blood were taken at 15 minute intervals from an indwelling catheter for up to 4 hours. The blood samples were centrifuged and the resulting plasma supernatants were stored frozen at −20° C. The plasma samples were subsequently analyzed for sCT by a direct ELISA, and for Dmt-DALDA by HPLC-mass spectrometry performed as set forth in Wan, H. and Desiderio, D., Quantitation of [DMT^1] DALDA in ovine plasma by on-line liquid chromatography/quadrapole time-of-flight mass spectrometry, Rapid Communications in Mass Spectrometry, 2003; 17, 538-546, the contents of which are incorporated herein by reference.
The results summarized in FIGS. 2A and 2B as plasma peptide concentration normalized to a 1 mg dose as a function of time relative to the average Tmax, (i.e., the time at which the maximum amount of peptide was detected) indicate that both peptides, i.e., sCT and Dmt-DALDA, were detected in dogs given uncoated or enteric coated capsules. […] Table DI (below) sets forth the values upon which the curves in FIGS. 2A and 2B are based. The results are summarized in the tables as plasma peptide concentration normalized to a 1 mg dose as a function of time. Table III, moreover, provides the standard deviations for the data obtained regarding each of the test dogs, which standard deviations are also indicated in FIGS. 2A and 2B.
Table IV (below) summarizes the pharmacokinetic parameters in dogs of orally administered sCT and Dmt-DALDA when administered in non-enteric coated versus enteric coated capsules. Peptide was not detected from 1 dog in each group due to (a) Dog 3 vomiting the uncoated capsule and (b) delayed gastric emptying in Dog 2 provided with an enteric coated capsule. Cmax and AUC are as defined with regard to Table H above.

CC(C)C[C@H](NC(=O)[C@H](CCCCN)NC(=O)CNC(=O)[C@H](CC(C)C)NC(=O)[C@@H](NC(=O)[C@@H]1CSSC[C@H](N)C(=O)N[C@@H](CO)C(=O)N[C@@H](CC(N)=O)C(=O)N[C@@H](CC(C)C)C(=O)N[C@@H](CO)C(=O)N[C@@H]([C@@H](C)O)C(=O)N1)C(C)C)C(=O)N[C@@H](CO)C(=O)N[C@@H](CCC(N)=O)C(=O)N[C@@H](CCC(=O)O)C(=O)N[C@@H](CC(C)C)C(=O)N[C@@H](Cc1c[nH]cn1)C(=O)N[C@@H](CCCCN)C(=O)N[C@@H](CC(C)C)C(=O)N[C@@H](CCC(N)=O)C(=O)N[C@H](C(=O)N[C@@H](Cc1ccc(O)cc1)C(=O)N1CCC[C@H]1C(=O)N[C@@H](CCCNC(=N)N)C(=O)N[C@H](C(=O)N[C@@H](CC(N)=O)C(=O)N[C@H](C(=O)NCC(=O)N[C@@H](CO)C(=O)NCC(=O)N[C@H](C(=O)N1CCC[C@H]1C(N)=O)[C@@H](C)O)[C@@H](C)O)[C@@H](C)O)[C@@H](C)O [sCT, salmon calcitonin]
plasma peptide concentration normalized to a 1 mg dose (enteric coated capsule, Dog 3, 75 min): 0 pg/mL | plasma peptide concentration normalized to a 1 mg dose (enteric coated capsule, Dog 3, 90 min): 0 pg/mL | plasma peptide concentration normalized to a 1 mg dose (enteric coated capsule, Dog 3, 105 min): 0 pg/mL | plasma peptide concentration normalized to a 1 mg dose (enteric coated capsule, Dog 3, 120 min): 0 pg/mL | plasma peptide concentration normalized to a 1 mg dose (enteric coated capsule, Dog 3, 135 min): 13219 pg/mL | plasma peptide concentration normalized to a 1 mg dose (enteric coated capsule, Dog 3, 150 min): 10151 pg/mL | plasma peptide concentration normalized to a 1 mg dose (enteric coated capsule, Dog 3, 165 min): 4410 pg/mL | plasma peptide concentration normalized to a 1 mg dose (enteric coated capsule, Dog 3, 180 min): 2983 pg/mL | plasma peptide concentration normalized to a 1 mg dose (enteric coated capsule, Dog 3, 195 min): 1825 pg/mL | plasma peptide concentration normalized to a 1 mg dose (enteric coated capsule, Dog 4, 0 min): 0 pg/mL | plasma peptide concentration normalized to a 1 mg dose (enteric coated capsule, Dog 4, 15 min): 0 pg/mL | plasma peptide concentration normalized to a 1 mg dose (enteric coated capsule, Dog 4, 30 min): 0 pg/mL | plasma peptide concentration normalized to a 1 mg dose (enteric coated capsule, Dog 4, 45 min): 0 pg/mL | plasma peptide concentration normalized to a 1 mg dose (enteric coated capsule, Dog 4, 60 min): 0 pg/mL | plasma peptide concentration normalized to a 1 mg dose (enteric coated capsule, Dog 4, 75 min): 0 pg/mL | plasma peptide concentration normalized to a 1 mg dose (enteric coated capsule, Dog 4, 90 min): 0 pg/mL | plasma peptide concentration normalized to a 1 mg dose (enteric coated capsule, Dog 4, 105 min): 13111 pg/mL | plasma peptide concentration normalized to a 1 mg dose (enteric coated capsule, Dog 4, 120 min): 13147 pg/mL | plasma peptide concentration normalized to a 1 mg dose (enteric coated capsule, Dog 4, 135 min): 6841 pg/mL | plasma peptide concentration normalized to a 1 mg dose (enteric coated capsule, Dog 4, 150 min): 4251 pg/mL | plasma peptide concentration normalized to a 1 mg dose (enteric coated capsule, Dog 4, 165 min): 2448 pg/mL | plasma peptide concentration normalized to a 1 mg dose (enteric coated capsule, Dog 4, 180 min): 1468 pg/mL | plasma peptide concentration normalized to a 1 mg dose (enteric coated capsule, Dog 4, 195 min): 1192 pg/mL | plasma peptide concentration normalized to a 1 mg dose (non-enteric coated capsule, Dog 1, 45 min): 1343 pg/mL | plasma peptide concentration normalized to a 1 mg dose (non-enteric coated capsule, Dog 1, 60 min): 561 pg/mL | plasma peptide concentration normalized to a 1 mg dose (non-enteric coated capsule, Dog 1, 75 min): 273 pg/mL | plasma peptide concentration normalized to a 1 mg dose (non-enteric coated capsule, Dog 1, 90 min): 140 pg/mL | plasma peptide concentration normalized to a 1 mg dose (non-enteric coated capsule, Dog 1, 105 min): 121 pg/mL | plasma peptide concentration normalized to a 1 mg dose (non-enteric coated capsule, Dog 1, 120 min): 89 pg/mL | plasma peptide concentration normalized to a 1 mg dose (non-enteric coated capsule, Dog 1, 135 min): 51 pg/mL | plasma peptide concentration normalized to a 1 mg dose (non-enteric coated capsule, Dog 1, 150 min): 31 pg/mL | plasma peptide concentration normalized to a 1 mg dose (non-enteric coated capsule, Dog 1, 165 min): 23 pg/mL | plasma peptide concentration normalized to a 1 mg dose (non-enteric coated capsule, Dog 1, 180 min): 16 pg/mL | plasma peptide concentration normalized to a 1 mg dose (non-enteric coated capsule, Dog 1, 195 min): 11 pg/mL | plasma peptide concentration normalized to a 1 mg dose (non-enteric coated capsule, Dog 1, 210 min): 0 pg/mL | plasma peptide concentration normalized to a 1 mg dose (non-enteric coated capsule, Dog 1, 225 min): 0 pg/mL | plasma peptide concentration normalized to a 1 mg dose (non-enteric coated capsule, Dog 1, 240 min): 0 pg/mL | plasma peptide concentration normalized to a 1 mg dose (non-enteric coated capsule, Dog 2, 45 min): 2151 pg/mL | plasma peptide concentration normalized to a 1 mg dose (non-enteric coated capsule, Dog 2, 60 min): 897 pg/mL | plasma peptide concentration normalized to a 1 mg dose (non-enteric coated capsule, Dog 2, 75 min): 229 pg/mL | plasma peptide concentration normalized to a 1 mg dose (non-enteric coated capsule, Dog 2, 90 min): 182 pg/mL | plasma peptide concentration normalized to a 1 mg dose (non-enteric coated capsule, Dog 2, 105 min): 122 pg/mL | plasma peptide concentration normalized to a 1 mg dose (non-enteric coated capsule, Dog 2, 120 min): 69 pg/mL | plasma peptide concentration normalized to a 1 mg dose (non-enteric coated capsule, Dog 2, 135 min): 44 pg/mL | plasma peptide concentration normalized to a 1 mg dose (non-enteric coated capsule, Dog 2, 150 min): 39 pg/mL | plasma peptide concentration normalized to a 1 mg dose (non-enteric coated capsule, Dog 2, 165 min): 22 pg/mL | plasma peptide concentration normalized to a 1 mg dose (non-enteric coated capsule, Dog 2, 180 min): 15 pg/mL | plasma peptide concentration normalized to a 1 mg dose (non-enteric coated capsule, Dog 2, 195 min): 0 pg/mL | plasma peptide concentration normalized to a 1 mg dose (non-enteric coated capsule, Dog 2, 210 min): 0 pg/mL | plasma peptide concentration normalized to a 1 mg dose (non-enteric coated capsule, Dog 2, 225 min): 0 pg/mL | plasma peptide concentration normalized to a 1 mg dose (non-enteric coated capsule, Dog 2, 240 min): 0 pg/mL | plasma peptide concentration normalized to a 1 mg dose (non-enteric coated capsule, Dog 4, 45 min): 278 pg/mL | plasma peptide concentration normalized to a 1 mg dose (non-enteric coated capsule, Dog 4, 60 min): 163 pg/mL | plasma peptide concentration normalized to a 1 mg dose (non-enteric coated capsule, Dog 4, 75 min): 101 pg/mL | plasma peptide concentration normalized to a 1 mg dose (non-enteric coated capsule, Dog 4, 90 min): 69 pg/mL | plasma peptide concentration normalized to a 1 mg dose (non-enteric coated capsule, Dog 4, 105 min): 45 pg/mL | plasma peptide concentration normalized to a 1 mg dose (non-enteric coated capsule, Dog 4, 120 min): 26 pg/mL | plasma peptide concentration normalized to a 1 mg dose (non-enteric coated capsule, Dog 4, 135 min): 16 pg/mL | plasma peptide concentration normalized to a 1 mg dose (non-enteric coated capsule, Dog 4, 150 min): 12 pg/mL | plasma peptide concentration normalized to a 1 mg dose (non-enteric coated capsule, Dog 4, 165 min): 0 pg/mL | plasma peptide concentration normalized to a 1 mg dose (non-enteric coated capsule, Dog 4, 180 min): 0 pg/mL | plasma peptide concentration normalized to a 1 mg dose (non-enteric coated capsule, Dog 4, 195 min): 0 pg/mL | plasma peptide concentration normalized to a 1 mg dose (non-enteric coated capsule, Dog 4, 210 min): 0 pg/mL | plasma peptide concentration normalized to a 1 mg dose (non-enteric coated capsule, Dog 4, 225 min): 0 pg/mL | plasma peptide concentration normalized to a 1 mg dose (non-enteric coated capsule, Dog 4, 240 min): 0 pg/mL

Source: patent US8835377B2, “Oral delivery of peptide pharmaceutical compositions” (UGP Therapeutics, Inc., priority 2004, dated 2014)
